Measured values: the supplement of paper PMC10307832

Experiments:
Assay in all cases: relative viability (nuclei count vs DMSO), 5 days (fraction); higher = more cells survive
IA-LM = tested on: IA-LM
Method in brief: (§1)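 A single step with final 0.05% Triton X-100, 1% formaldehyde and 1 ug/ml Hoechst fixed the cells and stained nuclei 5 days after treatment. Lung cancer cell lines in 1536-well plates had been treated by pin tool the day after seeding with one drug alone or a fixed anchor-drug dose plus five library-drug doses (not always all listed) in √10 steps, and nuclei were counted on 4× images. Relative viability is the ratio of nuclei in treated wells to nuclei in vehicle wells, taken as the median of duplicate plates.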

NCI-H1703 = tested on: NCI-H1703
Method in brief: as §1

A549 = tested on: A549
Method in brief: as §1

NCI-H1299 = tested on: NCI-H1299
Method in brief: as §1

EBC-1 = tested on: EBC-1
Method in brief: as §1

Calu-6 = tested on: Calu-6
Method in brief: as §1

NCI-H520 = tested on: NCI-H520
Method in brief: as §1

NCI-H1648 = tested on: NCI-H1648
Method in brief: as §1

C[C@@H]1CN(CC(=O)Nc2ccc3c(c2)Cc2cccc(-c4cc(=O)cc(N5CCOCC5)o4)c2S3)C[C@H](C)O1 + O=C(c1cc(Cc2n[nH]c(=O)c3ccccc23)ccc1F)N1CCN(C(=O)C2CC2)CC1 [Olaparib] (partner 8 µM)
relative viability (IA-LM; first compound 0.04 µM): 0.844 | relative viability (IA-LM; first compound 0.1265 µM): 0.976 | relative viability (IA-LM; first compound 0.4 µM): 0.792 | relative viability (IA-LM; first compound 4 µM): 0.207 | relative viability (NCI-H1703; first compound 0.04 µM): 0.489 | relative viability (NCI-H1703; first compound 0.1265 µM): 0.407 | relative viability (NCI-H1703; first compound 0.4 µM): 0.295 | relative viability (NCI-H1703; first compound 4 µM): 0.208 | relative viability (A549; first compound 0.04 µM): 0.239 | relative viability (A549; first compound 0.1265 µM): 0.334 | relative viability (A549; first compound 0.4 µM): 0.332 | relative viability (A549; first compound 4 µM): 0.0917 | relative viability (NCI-H1299; first compound 0.04 µM): 1.08 | relative viability (NCI-H1299; first compound 0.1265 µM): 1 | relative viability (NCI-H1299; first compound 0.4 µM): 1.05 | relative viability (NCI-H1299; first compound 4 µM): 0.488 | relative viability (EBC-1; first compound 0.04 µM): 0.736 | relative viability (EBC-1; first compound 0.1265 µM): 0.723 | relative viability (EBC-1; first compound 0.4 µM): 0.494 | relative viability (EBC-1; first compound 4 µM): 0.147 | relative viability (Calu-6; first compound 0.04 µM): 0.646 | relative viability (Calu-6; first compound 0.1265 µM): 0.573 | relative viability (Calu-6; first compound 0.4 µM): 0.672 | relative viability (Calu-6; first compound 4 µM): 0.299 | relative viability (NCI-H520; first compound 0.04 µM): 0.43 | relative viability (NCI-H520; first compound 0.1265 µM): 0.308 | relative viability (NCI-H520; first compound 0.4 µM): 0.31 | relative viability (NCI-H520; first compound 4 µM): 0.202 | relative viability (NCI-H1648; first compound 0.04 µM): 0.56 | relative viability (NCI-H1648; first compound 0.1265 µM): 1.08 | relative viability (NCI-H1648; first compound 0.4 µM): 0.879 | relative viability (NCI-H1648; first compound 4 µM): 0.56

CC(C)Oc1cc(Nc2nc(N[C@@H](C)c3ccc(F)cn3)ncc2Cl)n[nH]1 [AZ23] + O=C(c1cc(Cc2n[nH]c(=O)c3ccccc23)ccc1F)N1CCN(C(=O)C2CC2)CC1 [Olaparib] (partner 8 µM)
relative viability (IA-LM; first compound 0.01 µM): 0.79 | relative viability (IA-LM; first compound 0.03162 µM): 0.914 | relative viability (IA-LM; first compound 0.3162 µM): 0.949 | relative viability (NCI-H1703; first compound 0.03162 µM): 0.411 | relative viability (NCI-H1703; first compound 0.3162 µM): 0.397 | relative viability (A549; first compound 0.01 µM): 0.201 | relative viability (A549; first compound 0.03162 µM): 0.54 | relative viability (A549; first compound 0.3162 µM): 0.327 | relative viability (NCI-H1299; first compound 0.01 µM): 1.06 | relative viability (NCI-H1299; first compound 0.03162 µM): 0.984 | relative viability (NCI-H1299; first compound 0.3162 µM): 1.03 | relative viability (EBC-1; first compound 0.01 µM): 0.884 | relative viability (EBC-1; first compound 0.03162 µM): 0.767 | relative viability (EBC-1; first compound 0.3162 µM): 0.734 | relative viability (Calu-6; first compound 0.03162 µM): 0.662 | relative viability (Calu-6; first compound 0.3162 µM): 0.644 | relative viability (NCI-H520; first compound 0.01 µM): 0.346 | relative viability (NCI-H520; first compound 0.03162 µM): 0.328 | relative viability (NCI-H520; first compound 0.3162 µM): 0.312 | relative viability (NCI-H1648; first compound 0.01 µM): 0.6 | relative viability (NCI-H1648; first compound 0.03162 µM): 1.01 | relative viability (NCI-H1648; first compound 0.3162 µM): 0.697

COc1cc(N2CCC(C(N)=O)CC2)ccc1Nc1nc(N)c(Cl)c(Nc2ccccc2S(=O)(=O)C(C)C)n1 [HG-5-88-01] + CS(=O)(=O)CCNCc1ccc(-c2ccc3ncnc(Nc4ccc(OCc5cccc(F)c5)c(Cl)c4)c3c2)o1 [Lapatinib] (partner 2 µM)
relative viability (IA-LM; first compound 0.04 µM): 0.891 | relative viability (IA-LM; first compound 0.1265 µM): 0.864 | relative viability (IA-LM; first compound 0.4 µM): 0.721 | relative viability (IA-LM; first compound 1.265 µM): 0.712 | relative viability (IA-LM; first compound 4 µM): 0.404 | relative viability (NCI-H1703; first compound 0.04 µM): 0.832 | relative viability (NCI-H1703; first compound 0.1265 µM): 1.15 | relative viability (NCI-H1703; first compound 0.4 µM): 1.22 | relative viability (NCI-H1703; first compound 1.265 µM): 1.08 | relative viability (NCI-H1703; first compound 4 µM): 0.619 | relative viability (A549; first compound 0.04 µM): 0.984 | relative viability (A549; first compound 0.1265 µM): 0.917 | relative viability (A549; first compound 0.4 µM): 0.845 | relative viability (A549; first compound 1.265 µM): 0.573 | relative viability (A549; first compound 4 µM): 0.411 | relative viability (NCI-H1299; first compound 0.04 µM): 0.914 | relative viability (NCI-H1299; first compound 0.1265 µM): 0.983 | relative viability (NCI-H1299; first compound 0.4 µM): 0.87 | relative viability (NCI-H1299; first compound 1.265 µM): 1.05 | relative viability (NCI-H1299; first compound 4 µM): 0.963 | relative viability (EBC-1; first compound 0.04 µM): 0.221 | relative viability (EBC-1; first compound 0.1265 µM): 0.22 | relative viability (EBC-1; first compound 0.4 µM): 0.209 | relative viability (EBC-1; first compound 1.265 µM): 0.21 | relative viability (EBC-1; first compound 4 µM): 0.195 | relative viability (Calu-6; first compound 0.04 µM): 1.11 | relative viability (Calu-6; first compound 0.1265 µM): 1.05 | relative viability (Calu-6; first compound 0.4 µM): 1.19 | relative viability (Calu-6; first compound 1.265 µM): 1.04 | relative viability (Calu-6; first compound 4 µM): 0.774 | relative viability (NCI-H520; first compound 0.04 µM): 0.825 | relative viability (NCI-H520; first compound 0.1265 µM): 0.896 | relative viability (NCI-H520; first compound 0.4 µM): 0.401 | relative viability (NCI-H520; first compound 1.265 µM): 0.813 | relative viability (NCI-H520; first compound 4 µM): 0.795

COc1cc(N2CCC(C(N)=O)CC2)ccc1Nc1nc(N)c(Cl)c(Nc2ccccc2S(=O)(=O)C(C)C)n1 [HG-5-88-01] + CS(=O)(=O)N1CCN(Cc2cc3nc(-c4cccc5[nH]ncc45)nc(N4CCOCC4)c3s2)CC1 [Pictilisib] (partner 1 µM)
relative viability (IA-LM; first compound 0.04 µM): 0.398 | relative viability (IA-LM; first compound 0.1265 µM): 0.252 | relative viability (IA-LM; first compound 0.4 µM): 0.244 | relative viability (IA-LM; first compound 1.265 µM): 0.172 | relative viability (IA-LM; first compound 4 µM): 0.145 | relative viability (NCI-H1703; first compound 0.04 µM): 0.217 | relative viability (NCI-H1703; first compound 0.1265 µM): 0.223 | relative viability (NCI-H1703; first compound 0.4 µM): 0.228 | relative viability (NCI-H1703; first compound 1.265 µM): 0.222 | relative viability (NCI-H1703; first compound 4 µM): 0.226 | relative viability (A549; first compound 0.04 µM): 0.482 | relative viability (A549; first compound 0.1265 µM): 0.495 | relative viability (A549; first compound 0.4 µM): 0.389 | relative viability (A549; first compound 1.265 µM): 0.323 | relative viability (A549; first compound 4 µM): 0.237 | relative viability (NCI-H1299; first compound 0.04 µM): 0.745 | relative viability (NCI-H1299; first compound 0.1265 µM): 0.724 | relative viability (NCI-H1299; first compound 0.4 µM): 0.725 | relative viability (NCI-H1299; first compound 1.265 µM): 0.643 | relative viability (NCI-H1299; first compound 4 µM): 0.682 | relative viability (EBC-1; first compound 0.04 µM): 0.394 | relative viability (EBC-1; first compound 0.1265 µM): 0.362 | relative viability (EBC-1; first compound 0.4 µM): 0.339 | relative viability (EBC-1; first compound 1.265 µM): 0.324 | relative viability (EBC-1; first compound 4 µM): 0.217 | relative viability (Calu-6; first compound 0.04 µM): 0.942 | relative viability (Calu-6; first compound 0.1265 µM): 0.869 | relative viability (Calu-6; first compound 0.4 µM): 0.848 | relative viability (Calu-6; first compound 1.265 µM): 0.824 | relative viability (Calu-6; first compound 4 µM): 0.698 | relative viability (NCI-H520; first compound 0.04 µM): 0.366 | relative viability (NCI-H520; first compound 0.1265 µM): 0.273 | relative viability (NCI-H520; first compound 0.4 µM): 0.235 | relative viability (NCI-H520; first compound 1.265 µM): 0.299 | relative viability (NCI-H520; first compound 4 µM): 0.36
